Patent US20250339399A1, “SUPRAMOLECULAR SELF-ASSEMBLY SYSTEM” (Beijing Creatron Institute of Pharmaceutical Research Co., …, priority 2022, published 2025)

Assay: Binary supramolecular self-assembly systems of polymer and target: guest concentration over incubation time (Comparative Example 2)
Format: physicochemical
Details: binary system with 0.5% polymer 101; incubation 0.5 h
Procedure: Experiments were conducted according to the steps in Comparative Example 1, and quantitative analysis was carried out using the analytical method for each target to investigate the regulation ability […] stacking.

Row | Concentration of the target in the solution measured after different incubation time [µg/mL] | SMILES
1 | 45.8 | CCc1cc2c(cc1N1CCC(N3CCOCC3)CC1)C(C)(C)c1[nH]c3cc(C#N)ccc3c1C2=O [Alectinib, alectinib]
2 | 415.1 | COC(=O)[C@H](c1ccccc1Cl)N1CCc2sccc2C1 [Clopidogrel, clopidogrel]

Same assay, conditions: binary system with 0.5% polymer 101; incubation 3 h

Row | Concentration of the target in the solution measured after different incubation time [µg/mL] | SMILES
3 | 31.0 | CCc1cc2c(cc1N1CCC(N3CCOCC3)CC1)C(C)(C)c1[nH]c3cc(C#N)ccc3c1C2=O [Alectinib, alectinib]
4 | 421.5 | COC(=O)[C@H](c1ccccc1Cl)N1CCc2sccc2C1 [Clopidogrel, clopidogrel]

Same assay, conditions: binary system with 0.5% polymer 101; incubation 6 h

Row | Concentration of the target in the solution measured after different incubation time [µg/mL] | SMILES
5 | 9.4 | CCc1cc2c(cc1N1CCC(N3CCOCC3)CC1)C(C)(C)c1[nH]c3cc(C#N)ccc3c1C2=O [Alectinib, alectinib]
6 | 361.7 | COC(=O)[C@H](c1ccccc1Cl)N1CCc2sccc2C1 [Clopidogrel, clopidogrel]

Same assay, conditions: binary system with 0.5% polymer 102; incubation 0.5 h

Row | Concentration of the target in the solution measured after different incubation time [µg/mL] | SMILES
7 | 80.5 | CC1=C(/C=C/C(C)=C/C=C/C(C)=C/CO)C(C)(C)CCC1 [Vitamin A, vitamin A]
8 | 51.5 | CCc1cc2c(cc1N1CCC(N3CCOCC3)CC1)C(C)(C)c1[nH]c3cc(C#N)ccc3c1C2=O [Alectinib, alectinib]
9 | 29.1 | COC(=O)[C@H](c1ccccc1Cl)N1CCc2sccc2C1 [Clopidogrel, clopidogrel]

Same assay, conditions: binary system with 0.5% polymer 102; incubation 3 h

Row | Concentration of the target in the solution measured after different incubation time [µg/mL] | SMILES
10 | 80.2 | CC1=C(/C=C/C(C)=C/C=C/C(C)=C/CO)C(C)(C)CCC1 [Vitamin A, vitamin A]
11 | 47.5 | CCc1cc2c(cc1N1CCC(N3CCOCC3)CC1)C(C)(C)c1[nH]c3cc(C#N)ccc3c1C2=O [Alectinib, alectinib]
12 | 28.5 | COC(=O)[C@H](c1ccccc1Cl)N1CCc2sccc2C1 [Clopidogrel, clopidogrel]

Same assay, conditions: binary system with 0.5% polymer 102; incubation 6 h

Row | Concentration of the target in the solution measured after different incubation time [µg/mL] | SMILES
13 | 75.7 | CC1=C(/C=C/C(C)=C/C=C/C(C)=C/CO)C(C)(C)CCC1 [Vitamin A, vitamin A]
14 | 45.9 | CCc1cc2c(cc1N1CCC(N3CCOCC3)CC1)C(C)(C)c1[nH]c3cc(C#N)ccc3c1C2=O [Alectinib, alectinib]
15 | 26.1 | COC(=O)[C@H](c1ccccc1Cl)N1CCc2sccc2C1 [Clopidogrel, clopidogrel]

Same assay, conditions: binary system with 0.5% polymer 103; incubation 0.5 h

Row | Concentration of the target in the solution measured after different incubation time [µg/mL] | SMILES
16 | 1.0 | CCc1cc2c(cc1N1CCC(N3CCOCC3)CC1)C(C)(C)c1[nH]c3cc(C#N)ccc3c1C2=O [Alectinib, alectinib]
17 | 69.1 | COC(=O)[C@H](c1ccccc1Cl)N1CCc2sccc2C1 [Clopidogrel, clopidogrel]

Same assay, conditions: binary system with 0.5% polymer 103; incubation 3 h

Row | Concentration of the target in the solution measured after different incubation time [µg/mL] | SMILES
18 | 0.9 | CCc1cc2c(cc1N1CCC(N3CCOCC3)CC1)C(C)(C)c1[nH]c3cc(C#N)ccc3c1C2=O [Alectinib, alectinib]
19 | 69.6 | COC(=O)[C@H](c1ccccc1Cl)N1CCc2sccc2C1 [Clopidogrel, clopidogrel]

Same assay, conditions: binary system with 0.5% polymer 103; incubation 6 h

Row | Concentration of the target in the solution measured after different incubation time [µg/mL] | SMILES
20 | 1.3 | CCc1cc2c(cc1N1CCC(N3CCOCC3)CC1)C(C)(C)c1[nH]c3cc(C#N)ccc3c1C2=O [Alectinib, alectinib]
21 | 64.5 | COC(=O)[C@H](c1ccccc1Cl)N1CCc2sccc2C1 [Clopidogrel, clopidogrel]

Same assay, conditions: binary system with 0.5% polymer 106; incubation 0.5 h

Row | Concentration of the target in the solution measured after different incubation time [µg/mL] | SMILES
22 | 1.4 | CCc1cc2c(cc1N1CCC(N3CCOCC3)CC1)C(C)(C)c1[nH]c3cc(C#N)ccc3c1C2=O [Alectinib, alectinib]
23 | 37.0 | COC(=O)[C@H](c1ccccc1Cl)N1CCc2sccc2C1 [Clopidogrel, clopidogrel]

Same assay, conditions: binary system with 0.5% polymer 106; incubation 3 h

Row | Concentration of the target in the solution measured after different incubation time [µg/mL] | SMILES
24 | 2.1 | CCc1cc2c(cc1N1CCC(N3CCOCC3)CC1)C(C)(C)c1[nH]c3cc(C#N)ccc3c1C2=O [Alectinib, alectinib]
25 | 39.3 | COC(=O)[C@H](c1ccccc1Cl)N1CCc2sccc2C1 [Clopidogrel, clopidogrel]

Same assay, conditions: binary system with 0.5% polymer 106; incubation 6 h

Row | Concentration of the target in the solution measured after different incubation time [µg/mL] | SMILES
26 | 1.9 | CCc1cc2c(cc1N1CCC(N3CCOCC3)CC1)C(C)(C)c1[nH]c3cc(C#N)ccc3c1C2=O [Alectinib, alectinib]
27 | 39.5 | COC(=O)[C@H](c1ccccc1Cl)N1CCc2sccc2C1 [Clopidogrel, clopidogrel]

Same assay, conditions: binary system with 0.5% polymer 107; incubation 0.5 h

Row | Concentration of the target in the solution measured after different incubation time [µg/mL] | SMILES
28 | 1.5 | CCc1cc2c(cc1N1CCC(N3CCOCC3)CC1)C(C)(C)c1[nH]c3cc(C#N)ccc3c1C2=O [Alectinib, alectinib]
29 | 57.0 | COC(=O)[C@H](c1ccccc1Cl)N1CCc2sccc2C1 [Clopidogrel, clopidogrel]

Same assay, conditions: binary system with 0.5% polymer 107; incubation 3 h

Row | Concentration of the target in the solution measured after different incubation time [µg/mL] | SMILES
30 | 0.8 | CCc1cc2c(cc1N1CCC(N3CCOCC3)CC1)C(C)(C)c1[nH]c3cc(C#N)ccc3c1C2=O [Alectinib, alectinib]
31 | 37.8 | COC(=O)[C@H](c1ccccc1Cl)N1CCc2sccc2C1 [Clopidogrel, clopidogrel]

Same assay, conditions: binary system with 0.5% polymer 107; incubation 6 h

Row | Concentration of the target in the solution measured after different incubation time [µg/mL] | SMILES
32 | 2.9 | CCc1cc2c(cc1N1CCC(N3CCOCC3)CC1)C(C)(C)c1[nH]c3cc(C#N)ccc3c1C2=O [Alectinib, alectinib]
33 | 36.5 | COC(=O)[C@H](c1ccccc1Cl)N1CCc2sccc2C1 [Clopidogrel, clopidogrel]

Same assay, conditions: binary system with 0.5% polymer 110; incubation 0.5 h

Row | Concentration of the target in the solution measured after different incubation time [µg/mL] | SMILES
34 | 1.9 | CCc1cc2c(cc1N1CCC(N3CCOCC3)CC1)C(C)(C)c1[nH]c3cc(C#N)ccc3c1C2=O [Alectinib, alectinib]
35 | 64.7 | COC(=O)[C@H](c1ccccc1Cl)N1CCc2sccc2C1 [Clopidogrel, clopidogrel]

Same assay, conditions: binary system with 0.5% polymer 110; incubation 3 h

Row | Concentration of the target in the solution measured after different incubation time [µg/mL] | SMILES
36 | 1.6 | CCc1cc2c(cc1N1CCC(N3CCOCC3)CC1)C(C)(C)c1[nH]c3cc(C#N)ccc3c1C2=O [Alectinib, alectinib]
37 | 69.3 | COC(=O)[C@H](c1ccccc1Cl)N1CCc2sccc2C1 [Clopidogrel, clopidogrel]

Same assay, conditions: binary system with 0.5% polymer 110; incubation 6 h

Row | Concentration of the target in the solution measured after different incubation time [µg/mL] | SMILES
38 | 1.3 | CCc1cc2c(cc1N1CCC(N3CCOCC3)CC1)C(C)(C)c1[nH]c3cc(C#N)ccc3c1C2=O [Alectinib, alectinib]
39 | 64.4 | COC(=O)[C@H](c1ccccc1Cl)N1CCc2sccc2C1 [Clopidogrel, clopidogrel]

Assay: not given
Details: cited from earlier work

Row | SMILES | LogD7.4 or Log P
40 | CC1=C(/C=C/C(C)=C/C=C/C(C)=C/CO)C(C)(C)CCC1 [Vitamin A, vitamin A] | 4.69
41 | CCc1cc2c(cc1N1CCC(N3CCOCC3)CC1)C(C)(C)c1[nH]c3cc(C#N)ccc3c1C2=O [Alectinib, alectinib] | 4.75
42 | COC(=O)[C@H](c1ccccc1Cl)N1CCc2sccc2C1 [Clopidogrel, clopidogrel] | 4.11

Assay: Guest molecule concentration after incubation in initial medium without polymer (Comparative Example 1)
Format: physicochemical
Details: 0.5 h; 37° C.; pH 6.8 phosphate buffer
Procedure: pH 2.0 hydrochloric acid, pH 4.5 acetate, and pH 6.5, pH 6.8, or pH 7.4 phosphate buffer solutions were prepared. The selection of each initial medium followed the principle that the solubility in the initial medium of the selected targets (or active ingredients) should low enough, but should meet the detection sensitivity and accuracy requirements of the corresponding analytical methods. Each buffer as initial media was placed in a 50 ml test tube with a stopper, shaken in a constant temperature air shaker at 37° C.±0.5° C., with an amplitude of 200 rpm, and incubated for 1 hour. […] Samples were taken at 0.5 h, 3 h and 6 h after incubation, centrifuged at 37° C., 13000 rpm for 5 minutes, and the supernatant was diluted at least 10 times with the mobile phase under the target analyte analytical method, filtered, the initial filtrate was discarded, and the continued filtrate was used as the test solution for injection analysis. The corresponding HPLC method under each target object item in Table 8 was used to determine the content of each target substance. When the solubility of the target in the initial medium is below the quantitative limit of the analytical method, a small amount of surfactant, such as sodium dodecyl sulfate (SDS), Tween20, or Tween80, can be added appropriately.
The above targets were incubated at 37° C.±0.5° C. for different time in an initial medium without any polymer. Each solid target formed by molecular stacking was removed by centrifugation, and the supernatant was analyzed using the HPLC method under each target item (see Table 8). The theoretical addition concentration of each target when its supramolecular self-assembly system was built was determined by its maximum dose in clinical use.

Row | Concentration of guest molecule measured after different incubated time [µg/mL] | SMILES
43 | 57.2 | CC1=C(/C=C/C(C)=C/C=C/C(C)=C/CO)C(C)(C)CCC1 [Vitamin A, vitamin A]
44 | 2.5 | CCc1cc2c(cc1N1CCC(N3CCOCC3)CC1)C(C)(C)c1[nH]c3cc(C#N)ccc3c1C2=O [Alectinib, alectinib]

Same assay, conditions: 3 h; 37° C.; pH 6.8 phosphate buffer

Row | Concentration of guest molecule measured after different incubated time [µg/mL] | SMILES
45 | 51.1 | CC1=C(/C=C/C(C)=C/C=C/C(C)=C/CO)C(C)(C)CCC1 [Vitamin A, vitamin A]
46 | 10.2 | CCc1cc2c(cc1N1CCC(N3CCOCC3)CC1)C(C)(C)c1[nH]c3cc(C#N)ccc3c1C2=O [Alectinib, alectinib]

Same assay, conditions: 6 h; 37° C.; pH 6.8 phosphate buffer

Row | Concentration of guest molecule measured after different incubated time [µg/mL] | SMILES
47 | 53.0 | CC1=C(/C=C/C(C)=C/C=C/C(C)=C/CO)C(C)(C)CCC1 [Vitamin A, vitamin A]
48 | 2.2 | CCc1cc2c(cc1N1CCC(N3CCOCC3)CC1)C(C)(C)c1[nH]c3cc(C#N)ccc3c1C2=O [Alectinib, alectinib]
